Measured values reported in PMC8877448, “In Vitro and In Vivo Pharmacological Characterization of a Novel TRPM8 Inhibitor Chemotype Identified by Small-Scale Preclinical Screening” (International Journal of Molecular Sciences, 2022).
Where “and” joins values, the source holds several entries; their conditions need not be identical. Equal entries are not always repeated. Where two headings read alike, the source gives them in different places.

Columns and labels:
[1] = target: T1, rat isoform of TRPM8 channels (Rattus norvegicus, UniProt Q8R455); experiment: Ca2+ fluorometric assay, block of menthol-evoked responses in HEK293 cells stably expressing rTRPM8; format: cell-based; conditions: for potency compared with AMTB: calcium fluorometric assay; for Efficacy: percentage of inhibition of menthol evoked currents at the maximum concentration used (50 µM)
T1 construct: expressed in transfected cells
T1 sequence (Q8R455 whole entry, canonical isoform): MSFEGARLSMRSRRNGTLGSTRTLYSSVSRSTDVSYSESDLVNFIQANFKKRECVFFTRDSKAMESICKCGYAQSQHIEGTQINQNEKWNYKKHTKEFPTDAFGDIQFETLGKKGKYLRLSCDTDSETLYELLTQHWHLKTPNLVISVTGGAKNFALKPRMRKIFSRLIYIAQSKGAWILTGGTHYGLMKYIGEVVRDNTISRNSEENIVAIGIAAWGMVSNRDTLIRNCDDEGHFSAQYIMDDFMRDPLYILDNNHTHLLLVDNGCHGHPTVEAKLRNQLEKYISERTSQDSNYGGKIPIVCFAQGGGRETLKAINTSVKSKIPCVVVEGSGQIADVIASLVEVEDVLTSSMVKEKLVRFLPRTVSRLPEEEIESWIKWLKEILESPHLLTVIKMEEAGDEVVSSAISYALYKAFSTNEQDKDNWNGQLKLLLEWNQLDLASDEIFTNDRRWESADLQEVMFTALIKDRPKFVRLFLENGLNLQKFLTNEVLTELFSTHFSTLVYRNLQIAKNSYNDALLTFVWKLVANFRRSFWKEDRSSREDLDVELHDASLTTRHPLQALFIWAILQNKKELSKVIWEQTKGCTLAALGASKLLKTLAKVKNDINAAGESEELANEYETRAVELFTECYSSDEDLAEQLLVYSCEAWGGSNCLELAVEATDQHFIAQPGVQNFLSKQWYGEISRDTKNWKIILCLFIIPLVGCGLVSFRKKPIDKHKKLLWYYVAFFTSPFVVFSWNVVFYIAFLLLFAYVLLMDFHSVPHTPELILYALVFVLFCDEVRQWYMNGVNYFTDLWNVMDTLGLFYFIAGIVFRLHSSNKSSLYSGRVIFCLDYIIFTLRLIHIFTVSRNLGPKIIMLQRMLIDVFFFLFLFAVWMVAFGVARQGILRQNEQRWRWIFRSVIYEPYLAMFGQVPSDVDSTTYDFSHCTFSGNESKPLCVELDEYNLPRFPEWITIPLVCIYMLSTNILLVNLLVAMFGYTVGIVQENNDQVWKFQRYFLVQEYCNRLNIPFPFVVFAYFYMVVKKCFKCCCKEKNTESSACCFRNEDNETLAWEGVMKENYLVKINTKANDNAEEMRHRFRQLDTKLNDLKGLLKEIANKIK
Protocol: The inhibitory activity of the 21 selected compounds over TRPM8 was challenged by Ca^2+ fluorometric assays using HEK293 cells stably expressing the rat isoform of TRPM8 channels. Menthol and AMTB were used as reference agonist and antagonist, respectively. The compounds were initially tested at three different concentrations (50 μM, 5 μM, and 0.5 μM) to assess their ability in blocking 100 μM menthol evoked currents.
(§1) Cells, HEK-293 cells stably expressing rTRPM8 or hTRPV1, were cultured in a monolayer in Earle’s minimum essential medium with Earle’s salts supplemented with 10% fetal calf serum, 1% nonessential amino acids, 2 mM L-glutamine, 100 µg streptomycin/mL, 100 U penicillin/mL, and 0.4 µg/mL puromycin (referred to as Puro-EMEM) and kept at 37 °C in a humidified atmosphere of 5% CO2 in a suitable incubator (STERI-CyCLE CO2 Incubator Hepa Class 100, Thermo Electrón Corporation, Waltham, MA, USA). Cells were stored under liquid nitrogen and used for 15 generations from unfreezing.
For fluorometric experiments, HEK-293 cells stably expressing rTRPM8 or hTRPV1 were detached by means of Trypsin/EDTA solution, resuspended in DMEM-10%FCS and seeded at a concentration of 2 × 10^4 cells/mL.
(§2) Briefly human embryonic kidney cell line (HEK) stably transfected with rTRPM8 or hTRPV1 were seeded in 96-well plates at a cell density of 30,000 cells. After 2 days the medium was replaced with 100 μL of the dye loading solution Fluo-4 NW supplemented with probenecid 2.5 mM and incubated 1 h at 37 °C. The TRP ion channel activity was measured using POLASTAR plate reader (BMG Labtech, Ortenberg, Germany) setting the excitation wavelength at 485 nm and emission wavelength at 520 nm. The baseline fluorescence was recorded for 3 cycles before the addition of the vehicle, compound at different concentrations, and the antagonist, 10 μM AMTB for TRPM8 and Ruthenium red for TRPV1. Fluorescence intensity was recorded during 7 more cycles and agonist 100 μM menthol for TRPM8 or 10 μM capsaicin for TRPV1 was added. Fluorescence intensity was recorded during 10 more cycles.
Data analysis: The Z-factor was calculated in each assay using the following equation: […]. […] A decrease in menthol signal was expressed as a percentage of inhibition (%). All data are expressed as the mean ± standard deviation (SD). Data are expressed as the concentration exerting a half-maximal inhibition of agonist-induced (Ca^2+)^i elevation (IC50), which was calculated again using GraphPad Prism® software (GraphPad Prism 5, Graphpad Software, San Diego, CA, USA). The equation used was Y = Bottom + (Top − Bottom)/(1 + 10^((LogEC50-X) ^× HillSlope)), with the restriction of the minimum (Bottom = 0). All determinations were performed in triplicate (n = 3) in 3 independent experiments (n= 3).

[2] = target: T2, hTRPV1 (Homo sapiens, UniProt Q8NER1); experiment: Ca2+ fluorometric assay on HEK-293 cells stably expressing hTRPV1 (selectivity); format: cell-based
T2 construct: expressed in transfected cells
T2 sequence (Q8NER1 whole entry): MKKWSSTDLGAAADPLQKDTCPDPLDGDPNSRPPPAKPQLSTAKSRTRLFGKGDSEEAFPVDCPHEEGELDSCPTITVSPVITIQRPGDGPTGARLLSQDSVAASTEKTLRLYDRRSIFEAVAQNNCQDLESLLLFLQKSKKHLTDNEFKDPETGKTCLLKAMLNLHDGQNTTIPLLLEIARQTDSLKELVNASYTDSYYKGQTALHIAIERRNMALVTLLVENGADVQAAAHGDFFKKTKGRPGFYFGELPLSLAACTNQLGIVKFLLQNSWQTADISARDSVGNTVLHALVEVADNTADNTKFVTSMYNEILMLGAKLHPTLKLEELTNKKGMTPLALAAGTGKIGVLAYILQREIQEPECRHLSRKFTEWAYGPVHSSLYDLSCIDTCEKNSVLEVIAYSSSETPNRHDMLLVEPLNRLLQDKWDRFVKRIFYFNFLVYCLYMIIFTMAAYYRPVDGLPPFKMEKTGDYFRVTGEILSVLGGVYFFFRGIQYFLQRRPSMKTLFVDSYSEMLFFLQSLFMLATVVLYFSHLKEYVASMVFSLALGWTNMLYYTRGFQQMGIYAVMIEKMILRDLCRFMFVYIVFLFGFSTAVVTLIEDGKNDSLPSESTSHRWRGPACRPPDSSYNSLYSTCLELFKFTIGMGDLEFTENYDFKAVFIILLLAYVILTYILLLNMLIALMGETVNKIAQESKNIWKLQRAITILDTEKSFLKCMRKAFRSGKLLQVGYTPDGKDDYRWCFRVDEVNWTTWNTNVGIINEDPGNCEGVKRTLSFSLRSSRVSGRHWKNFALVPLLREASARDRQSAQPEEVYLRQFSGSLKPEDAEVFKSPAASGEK
Protocol: as §1, with “unfreezing. […]” for “unfreezing.”
as §2, with “After 2 days the medium was replaced with 100 μL of the dye loading solution Fluo-4 NW supplemented with probenecid 2.5 mM and incubated 1 h at 37 °C.” left out, “cycles. […]” for “cycles.”

[3] = tested on: oxaliplatin-induced cold allodynia; experiment: Oxaliplatin-induced cold hypersensitivity, acetone drop test; format: in vivo, mice; conditions: for effect on oxaliplatin-induced cold hypersensitivity: acetone drop test
Description: TRPM8 antagonism is deeply related to analgesic in vivo effects and has been proposed as a suitable pharmacological strategy for the treatment of chronic pain, migraine, and painful syndromes. TRPM8 antagonists are particularly known to counteract the chemotherapy-induced neuropathic pain evoked by oxaliplatin [24, 27, 28, 29]. For these reasons we challenged compound 14 (BB 0322703) in vivo using the oxaliplatin-induced cold hypersensitivity assay. […]. […] In particular, a correspondence between the in vitro potency and the effective in vivo dose is typical for TRPM8 modulators in the oxaliplatin-induced neuropathic pain model. Extremely in-vitro potent compounds are effective also at lower doses […]. When in vitro potency is reduced, as also in the present case, in vivo efficacy decreases correspondingly. […] This is also the case of compound 14, which for these reasons could be considered a promising hit-compound for the development of new chemotypes as TRPM8 antagonists and a pharmacological tool for the treatment of neuropathic pain.
[…]. Care was taken to minimize the number of animals used and the pain and stress they experienced. All experimental procedures were approved by the Animal Care and Use Committees of Universidad Miguel Hernández and the regional government and were conducted according to the ethical principles of the International Association for the Study of Pain (IASP) for the evaluation of pain in conscious animals, the European Parliament and the Council Directive (2010/63/EU) and the Spanish law (RD 53/2013). Housing conditions were maintained at 21 ± 1 °C and 55 ± 15% relative humidity in a controlled light/dark cycle (light on between 8:00 a.m. and 8:00 p.m.). Animals had free access to food and water except during the habituation or the evaluation of nociceptive sensitivity. All parts of the study concerning animal care were performed under veterinary control.
Compound 14 (BB 0322703) was dissolved in 2.5% dimethyl sulfoxide (Merck, Darmstadt, Germany) and 2.5% cremophor EL (Merck) diluted in saline. […]
Oxaliplatin-induced neuropathic pain was induced by repeated oxaliplatin administration (Cat. No. 2623, Tocris, Bristol, UK). […] Nociceptive sensitivity was assessed before oxaliplatin treatment and 3 days after the last oxaliplatin administration.
Cold chemical thermal sensitivity was assessed using the acetone drop method as previously described. […] The responses were measured for 1 min with a digital stopwatch. For each measurement, the paw was sampled three times and the mean was calculated. […]
Behavioral data were analyzed with a repeated-measures ANOVA followed by a post-hoc Tukey test (GraphPad Prism 7.04, GraphPad Software Inc.). p-values lower than 0.05 were considered statistically significant.

[4] = target: T3, rTRPM8 (Rattus norvegicus, UniProt Q8R455); experiment: Whole-cell patch-clamp on HEK-rTRPM8 cells, menthol-evoked currents; format: cell-based
T3 construct: expressed in transfected cells
T3 sequence (Q8R455 whole entry): as the sequence (Q8R455 whole entry, canonical isoform) above
Protocol: Dose-response curves were then recorded to evaluate the compound relative potencies.
Whole-cell patch-clamp recordings from HEK-rTRPM8 cells were carried out 2 days after seeding on 12-mm Ø glass coverslips treated with poly-L-lysine solution (Sigma Aldrich, Madrid, Spain); the intracellular pipette solution contained (in mM) 150 NaCl, 5 EGTA, 3 MgCl2, and 10 HEPES, adjusted to pH 7.2 with NaOH, and the extracellular solution contained (in mM) 150 NaCl, 6 CsCl, 1.5 CaCl2, 1 MgCl2, 10 D-glucose and 10 HEPES, adjusted to pH 7.4 with NaOH. The TRPM8 activity was measured by the application of two pulses of 100 μM menthol in a time interval of 2 min and 30-s perfusion of the different compound concentrations before the second menthol pulse.
The series resistance was <10 MΩ and to minimize voltage errors was compensated to 60–80%. All measurements were performed at 24–25 °C. Cell capacitance was measured and used to estimate the current density (J, pA/pF).
For the whole-cell patch-clamp experiments, results are expressed as the percentage of the remaining activation of the TRPM8 channel. This is calculated by normalizing the ratio (p2/p1) of testing conditions to the ratio (p2/p1) of the control condition. The analysis of the data was performed by GraphPad 6.0, the ordinary one-way ANOVA analysis followed by the post hoc Bonferroni test established multiple comparisons, and the ROUT method (Q = 10%) identified data outliers. […] Paired or unpaired Student’s t-tests were also used for data comparison between two groups. All data are expressed as the mean ± standard error of the mean (SEM) (n = 12–15).

NCC1CCCN(CCc2cccc(F)c2)C1 (centres unmarked) [Compound 1]
IC50 [1]: 10.2 ± 1.31 µM
potency compared with AMTB [1]: comparable potencies to AMTB
Efficacy [1]: 85%

COC(=O)C1=C(Nc2ccccc2F)SC(=Cc2ccccc2OCC#CC(C)(O)c2ccccn2)C1=O (centres unmarked) [Compound 19]
IC50 [1]: 5.52 ± 1.45 µM
potency compared with AMTB [1]: comparable potencies to AMTB
Efficacy [1]: 90%
EC50 ([2]; agonist, normalized to capsaicine 10 μM = 100%, brackets 95% confidence interval, read-out: EC50 TRPV1 activation): 1.34 to 1.68 µM and 1.34 µM
Hill Slope, TRPV1 activation ([2]; fit of dose-response curve, Bottom = 0): 0.67

Cc1nn(C)c(Oc2ccc(Cl)cc2)c1-c1noc(C)c1C(=O)Nc1ccc(F)cc1 [Compound 5]
IC50 [1]: 11.1 ± 1.32 µM
potency compared with AMTB [1]: comparable potencies to AMTB
Efficacy [1]: 95%

CCOC(=O)C(C)Nc1ccccc1C(=O)NC(C)c1ccccc1 [Compound 14, Ethyl (R)-N-[2-{[(1-Phenylethyl)amino]carbonyl}phenyl]-2-aminopropionic acid]
IC50 [1]: 0.25 ± 0.15 µM
IC50/potency fold difference versus AMTB ([1]; calcium fluorometric IC50 compared with reference AMTB): about 30 fold
Efficacy [1]: 100%
efficacy in cold allodinya model ([3]; 30 μM dose (abstract)): showing pharmacological efficacy
effect on oxaliplatin-induced cold hypersensitivity ([3]; mice, intraplantar 10 µg): did not show significant modification of their nociceptive sensitivity
duration of inhibition of cold hypersensitivity ([3]; mice, intraplantar dose of 30 µg): at least 1 h
effect on oxaliplatin-induced cold hypersensitivity ([3]; mice, intraplantar dose of 30 µg, p < 0.05 vs. Oxaliplatin): significant inhibition of this cold hypersensitivity
IC50 [4]: 1.25 ± 0.26 µM
effect on TRPM8 menthol-evoked currents ([4]; compound at 10 μM, 100 μM menthol): abolishing the TRPM8 menthol-evoked currents
Hill slope, patch-clamp inhibition ([4]; fit of dose-response curve, Top = 100): −1.23

Cc1cccc(COc2ccccc2C(=O)N(CCCN)Cc2cccs2)c1 [AMTB, reference compound]
IC50 ([1]; 100 μM menthol, HEK293 rTRPM8, mean ± SD of at least three independent measurements, read-out: IC50): 7.15 ± 1.24 µM
Efficacy [1]: 100%
